Assay results taken from PMC7059037, “Development of 1,2,4-Triazole-5-Thione Derivatives as Potential Inhibitors of Enoyl Acyl Carrier Protein Reductase (InhA) in Tuberculosis” (Iranian Journal of Pharmaceutical Research : IJPR, 2019).
≈ marks a conversion by molar mass, not a printed value. Like-named read-outs stand apart in the source and are kept apart here.

Tests used:
Mtb H37Rv strain = experiment: Mtb H37Rv assay, resazurin microtiter-based assay (REMA); assay type: cell-based, Mycobacterium tuberculosis; conditions: REMA plate method, 90% inhibition with respect to growth control
[1] = target: Mtb InhA (enoyl acyl carrier protein reductase) (Mycobacterium tuberculosis, UniProt P9WGR1); experiment: Mtb InhA enzyme inhibition assay (fluorescence based); assay type: biochemical
Method: Mtb InhA enzyme inhibition assay (Fluorescence based assay)
The compounds were dissolved in 100% dimethyl sulfoxide (DMSO). […] The 50μL enzyme reaction contained PIPES- 30 mM, pH 7.5, NaCl - 50 mM, 0.005% Brij-35, DTT - 2mM, and EDTA- 0.1mM. The enzyme reaction was started by the addition of […] of dodecyl CoA synthesized in-house and the depletion of NADH was followed by measuring the fluorescence of NADH kinetically in the reaction for 30min at excitation at 340nm and emission at 420nm using Tecan Saffire II reader. The concentration at which 50% inhibition in enzyme activity was observed was reported as the IC50.

[2] = read-out: InhA IC50, InhA 1.25 nM, 0.050 mM NADH, NADH fluorescence

Chain of Mtb InhA (enoyl acyl carrier protein reductase) (P9WGR1 whole entry, looked up): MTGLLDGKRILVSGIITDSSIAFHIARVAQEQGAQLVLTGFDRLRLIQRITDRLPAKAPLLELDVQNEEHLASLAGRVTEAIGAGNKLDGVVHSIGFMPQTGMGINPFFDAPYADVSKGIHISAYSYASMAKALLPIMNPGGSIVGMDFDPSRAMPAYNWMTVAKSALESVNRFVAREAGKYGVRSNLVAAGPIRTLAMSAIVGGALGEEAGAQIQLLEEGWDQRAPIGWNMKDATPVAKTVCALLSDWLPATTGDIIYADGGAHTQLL

Compound | MIC (Mtb H37Rv strain; Mycobacterium tuberculosis) | IC50 [1, 2] | melting point | MIC (Mtb H37Rv strain) | IC50 [1]
Nn1c(-c2ccncc2)nn(CC(=O)Nc2ccccc2)c1=S [Compound 6a, 2-(4-Amino-3-pyridin-4-yl-5-thioxo-4,5-dihydro-[1,2,4]triazol-1-yl)-N-phenyl acetamide] | 12.5 µM (≈ 4.08 µg/mL) | 0.68 µM | 242 to 244 °C | – | –
Cc1ccc(NC(=O)Cn2nc(-c3ccncc3)n(N)c2=S)cc1 [Compound 6b, 2-(4-amino-3-(pyridin-4-yl)-5-thioxo-4,5-dihydro-1H-1,2,4-triazol-1-yl)-N-(p-tolyl)acetamide] | 0.19 µM (≈ 0.0647 µg/mL) | – | 237 to 238 °C | 0.19 µM (≈ 0.0647 µg/mL) | 0.09 µM
Nn1c(-c2ccncc2)nn(CC(=O)Nc2ccc(Br)cc2F)c1=S [Compound 6c, 2-(4-amino-3-(pyridin-4-yl)-5-thioxo-4,5-dihydro-1H-1,2,4-triazol-1-yl)-N-(4-bromo-2-fluorophenyl)acetamide] | 3.12 µM (≈ 1.32 µg/mL) | – | 276 to 278 °C | – | 6.15 µM
COc1ccc(NC(=O)Cn2nc(-c3ccncc3)n(N)c2=S)cc1 [Compound 6d, 2-(4-Amino-3-(pyridin-4-yl)-5-thioxo-4,5-dihydro-1H[1,2,4]triazol-1-yl)-N-(4-methoxyphenyl) acetamide] | 25 µM (≈ 8.91 µg/mL) | 10.8 µM | 256 to 258 °C | – | –
Nn1c(-c2ccncc2)nn(CC(=O)Nc2cccc(C(F)(F)F)c2)c1=S [Compound 6e, 2-(4-Amino-3-(pyridin-4-yl)-5-thioxo-4,5-dihydro-1H[1,2,4]triazol-1-yl)-N-(3-trifluoromethylphenyl) acetamide] | 12.5 µM (≈ 4.93 µg/mL) | 5.95 µM | 242 to 244 °C | – | –
Nn1c(-c2ccncc2)nn(CC(=O)Nc2ccc(Cl)cc2)c1=S [Compound 6f, 2-(4-Amino-(3-pyridin-4-yl)-5-thioxo-4,5-dihydro-1H[1,2,4]triazol-1-yl)-N-(4-chlorophenyl) acetamide] | 12.5 µM (≈ 4.51 µg/mL) | 1.2 µM | 218 to 220 °C | – | –
Cc1ccc(NC(=O)Cn2nc(-c3ccncc3)n(N)c2=S)cc1C [Compound 6g, 2-(4-Amino-(3-pyridin-4-yl)-5-thioxo-4,5-dihydro-1H[1,2,4]triazol-1-yl)-N-(3,4-dimethylphenyl) acetamide] | 0.39 µM (≈ 0.138 µg/mL) | 0.19 µM | 242 to 244 °C | – | –
Cc1ccc(NC(=O)Cn2nc(-c3ccncc3)n(N)c2=S)cc1Cl [Compound 6h, 2-(4-Amino-(3-pyridin-4-yl)-5-thioxo-4,5-dihydro-1H[1,2,4]triazol-1-yl)-N-(3-chloro-4-methylphenyl) acetamide] | 6.25 µM (≈ 2.34 µg/mL) | 0.34 µM | 214 to 216 °C | – | –
Cc1cccc(NC(=O)Cn2nc(-c3ccncc3)n(N)c2=S)c1 [Compound 6i, 2-(4-Amino-(3-pyridin-4-yl)-5-thioxo-4,5-dihydro-1H[1,2,4]triazol-1-yl)-N-(3-methylphenyl)acetamide] | 0.39 µM (≈ 0.133 µg/mL) | – | 225 to 227 °C | – | 0.12 µM
Nn1c(-c2ccncc2)nn(CC(=O)Nc2cccc(Cl)c2)c1=S [Compound 6j, 2-(4-Amino-(3-pyridin-4-yl)-5-thioxo-4,5-dihydro-1H[1,2,4]triazol-1-yl)-N-(3-chlorophenyl) acetamide] | 6.25 µM (≈ 2.26 µg/mL) | 3.1 µM | 220 to 222 °C | – | –
Nn1c(-c2ccncc2)nn(CC(=O)Nc2cc(C(F)(F)F)ccc2Cl)c1=S [Compound 6k, 2-(4-Amino-(3-pyridin-4-yl)-5-thioxo-4,5-dihydro-1H[1,2,4]triazol-1-yl)-N-(2-chloro-5-trifluoromethylphenyl) acetamide] | – | – | 184 to 186 °C | – | –
COc1cccc(NC(=O)Cn2nc(-c3ccncc3)n(N)c2=S)c1 [Compound 6l, 2-(4-Amino-(3-pyridin-4-yl)-5-thioxo-4,5-dihydro-1H[1,2,4]triazol-1-yl)-N-(3-methoxyphenyl) acetamide] | – | – | 222 to 224 °C | – | –
Nn1c(-c2ccncc2)nn(CC(=O)Nc2ccc(F)cc2)c1=S [Compound 6m, 2-(4-Amino-(3-pyridin-4-yl)-5-thioxo-4,5-dihydro-1H[1,2,4]triazol-1-yl)-N-(4-fluorophenyl) acetamide] | – | – | 227 to 229 °C | – | –
Nn1c(-c2ccncc2)nn(CC(=O)Nc2ccc(C(F)(F)F)cc2)c1=S [Compound 6n, 2-(4-Amino-(3-pyridin-4-yl)-5-thioxo-4,5-dihydro-1H[1,2,4]triazol-1-yl)-N-(4-trifluoromethylphenyl) acetamide] | – | – | 227 to 229 °C | – | –
Nn1c(-c2ccncc2)nn(CC(=O)Nc2ccccn2)c1=S [Compound 6o, 2-(4-Amino-(3-pyridin-4-yl)-5-thioxo-4,5-dihydro-1H[1,2,4]triazol-1-yl)-N-pyridin-2-yl acetamide] | 100 µM (≈ 32.7 µg/mL) | 76 µM | 212 to 214 °C | – | –
Cc1cccc(NC(=O)Cn2nc(-c3ccncc3)n(N)c2=S)n1 [Compound 6p, 2-(4-Amino-(3-pyridin-4-yl)-5-thioxo-4,5-dihydro-1H[1,2,4]triazol-1-yl)-N-(6-methylpyridin-2-yl) acetamide] | 100 µM (≈ 34.1 µg/mL) | 86 µM | 230 to 232 °C | – | –
Cc1ccnc(NC(=O)Cn2nc(-c3ccncc3)n(N)c2=S)c1 [Compound 6q, 2-(4-Amino-(3-pyridin-4-yl)-5-thioxo-4,5-dihydro-1H[1,2,4]triazol-1-yl)-N-(4-methylpyridin-2-yl) acetamide] | – | – | 217 to 219 °C | – | –
Nn1c(-c2ccncc2)nn(CC(=O)Nc2ncccn2)c1=S [Compound 6r, 2-(4-Amino-(3-pyridin-4-yl)-5-thioxo-4,5-dihydro-1H[1,2,4]triazol-1-yl)-N-pyrimidin-2-yl acetamide] | – | – | 205 to 207 °C | – | –
Cc1cc(NC(=O)Cn2nc(-c3ccncc3)n(N)c2=S)no1 [Compound 6s, 2-(4-Amino-(3-pyridin-4-yl)-5-thioxo-4,5-dihydro-1H[1,2,4]triazol-1-yl)-N-(5-methylisoxazol-3-yl) acetamide] | – | – | 242 to 244 °C | – | –
Cc1cccc2sc(NC(=O)Cn3nc(-c4ccncc4)n(N)c3=S)nc12 [Compound 6t, 2-(4-Amino-(3-pyridin-4-yl)-5-thioxo-4,5-dihydro-1H[1,2,4]triazol-1-yl)-N-(4-methylbenzothiazol-3-yl) acetamide] | – | – | 243 to 245 °C | – | –
Nn1c(-c2ccncc2)nn(CC(=O)Nc2nccs2)c1=S [Compound 6u, 2-(4-Amino-(3-pyridin-4-yl)-5-thioxo-4,5-dihydro-1H[1,2,4]triazol-1-yl)-N-thiazol-2-yl acetamide] | – | – | 253 to 255 °C | – | –
Cc1cnc(NC(=O)Cn2nc(-c3ccncc3)n(N)c2=S)s1 [Compound 6v, 2-(4-Amino-(3-pyridin-4-yl)-5-thioxo-4,5-dihydro-1H[1,2,4]triazol-1-yl)-N-(5-methylthiazol-2-yl) acetamide] | – | – | 250 to 252 °C | – | –
O=C(Cn1nc(-c2ccncc2)oc1=S)Nc1ccccn1 [Compound 7a, 2-(5-pyridin-4-yl-2-thioxo-[1,3,4]oxadiazol-3-yl)-N-pyridin-2-yl acetamide] | – | – | 216 to 218 °C | – | –
Cc1cc(NC(=O)Cn2nc(-c3ccncc3)oc2=S)no1 [Compound 7b, N-(5-methylisoxazol-3-yl)-2-(5-(pyridin-4-yl)-2-thioxo-1,3,4-oxadiazol-3(2H)-yl)acetamide] | 50 µM (≈ 15.9 µg/mL) | – | 232 to 234 °C | – | 24 µM
O=C(Cn1nc(-c2ccncc2)oc1=S)Nc1nccs1 [Compound 7c, 2-(5-pyridin-4-yl-2-thioxo-[1,3,4]oxadiazol-3-yl)-N-thiazol-2-yl acetamide] | – | – | 244 to 246 °C | – | –
Cc1cnc(NC(=O)Cn2nc(-c3ccncc3)oc2=S)s1 [Compound 7d, N-(5-methylthiazol-2-yl)-2-(5-(pyridin-4-yl)-2-thioxo-1,3,4-oxadiazol-3(2H)-yl)acetamide] | 100 µM (≈ 33.3 µg/mL) | – | 236 to 238 °C | – | 67 µM
O=C(Cn1nc(-c2ccncc2)oc1=S)Nc1ncc([N+](=O)[O-])s1 [Compound 7e, N-(5-nitrothiazol-2-yl)-2-(5-(pyridin-4-yl)-2-thioxo-1,3,4-oxadiazol-3(2H)-yl)acetamide] | 100 µM (≈ 36.4 µg/mL) | – | 254 to 256 °C | – | 82 µM
O=C(Cn1nc(-c2ccncc2)oc1=S)Nc1nc2ccccc2s1 [Compound 7f, 2-(5-pyridin-4-yl-2-thioxo-[1,3,4]oxadiazol-3-yl)-N-benzothiazol-2-yl acetamide] | – | – | 206 to 208 °C | – | –
CCOc1ccc2nc(NC(=O)Cn3nc(-c4ccncc4)oc3=S)sc2c1 [Compound 7g, N-(6-ethoxybenzo[d]thiazol-2-yl)-2-(5-(pyridin-4-yl)-2-thioxo-1,3,4-oxadiazol-3(2H)-yl)acetamide] | > 100 µM | – | 252 to 254 °C | – | > 100 µM
NNC(=O)c1ccncc1 [INH, isoniazid, reference compound] | 0.05 µM (≈ 0.00686 µg/mL) | – | – | – | –
